Data reported in patent EP0947511A1, “Derivatives of phenoxy acetic acid and of phenoxymethyl tetrazole having antitumor activity” (F. HOFFMANN-LA ROCHE AG, priority 1998, dated 1999).

Key:
HT29 cytosolic GST = HT29 cytosolic GST (Homo sapiens, UniProt P09211); assay: Spectrophotometric GST activity analysis; assay type: biochemical; conditions: inhibition of GST activity in HT29 cells
Protocol: GST catalyzes the conjugation of CDNB with glutathione and results in a CDNB-glutathione product with a strong molar absorption at 340 nm. The change of absorption is monitored for 5 min.
1 x 10^6 cells are collected and washed once with ice-cold phosphate-buffered saline at 1000 rpm for 10 min at 4°C. Cell pellets are resuspended in 200 µl ice-cold phosphate-buffered saline, and are sonicated for 2 min on ice. The sonicate is then centrifuged at 11750 g, 4°C for 15 min in an Eppendorf Centrifuge, and the supernatant is assayed for GST activity.

MCF-7ADR = assay: Radiosensitizing activity of MDM2 antagonistic compounds, MCF-7ADR cells; assay type: cell-based, human; conditions: MCF-7 ADR cells (mutant p53, high GST content)
Protocol: Biologic assay for radiosensitizing activity of MDM2 antagonistic compounds: Human tumor cell lines containing wild-type p53 and low levels of GST, such as MCF7 (breast carcinoma) or mutant p53 and a high GST content, such as MCF7 ADR (adriamycin-resistant breast carcinoma) are cultivated in RPMI medium, supplemented with 10% fetal calf serum to a semi-confluent state.
In order to determine the radiosensitizing activity of selected compounds on these cells a minimal toxic dose was determined as 2Gy with a ^137Cesium source at room temperature. Following irradiation of monolayer cells in exponential growth phase with 2 Gy, cells were incubated with various concentrations of the selected compounds for 2-6 h. Cells were trypsinized and seeded in appropriate dilutions into 6 well plates. Surviving cells were trypsinized after 12-13 days and cell number was determined by staining with trypane blue for living/dead cells. The protocol was established according to Khil et al., 1996, Int. J. Rad. Oncol. Biol. Phys. 34, 375-380.

Sequence of HT29 cytosolic GST (P09211 2-210): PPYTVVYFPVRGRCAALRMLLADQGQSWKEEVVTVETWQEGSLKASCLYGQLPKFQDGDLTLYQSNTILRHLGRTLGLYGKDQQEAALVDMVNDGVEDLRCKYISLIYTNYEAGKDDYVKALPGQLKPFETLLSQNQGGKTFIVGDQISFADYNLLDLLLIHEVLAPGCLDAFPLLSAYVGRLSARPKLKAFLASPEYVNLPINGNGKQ

SMILES	IC-50 (HT29 cytosolic GST)	radiosensitization (MCF-7ADR)
O=C(O)COc1ccc(C(=O)/C=C/c2ccc(Cl)c(Cl)c2)cc1 [LSM 83177, 3,4-dichloro-4'-(carboxymethoxy)chalcone]	7,7 µg/ml	leads to a radiosensitization in MCF-7 ADR cells
C=C(CC)C(=O)c1ccc(OCC(=O)O)c(Cl)c1Cl [ethacrynic acid, reference compound]		does not mediate any radiosensitization
